pIC50: −log10 of the molar value.
Target: T1, Menin (Homo sapiens, UniProt O00255)
T1 sequence (O00255 whole entry): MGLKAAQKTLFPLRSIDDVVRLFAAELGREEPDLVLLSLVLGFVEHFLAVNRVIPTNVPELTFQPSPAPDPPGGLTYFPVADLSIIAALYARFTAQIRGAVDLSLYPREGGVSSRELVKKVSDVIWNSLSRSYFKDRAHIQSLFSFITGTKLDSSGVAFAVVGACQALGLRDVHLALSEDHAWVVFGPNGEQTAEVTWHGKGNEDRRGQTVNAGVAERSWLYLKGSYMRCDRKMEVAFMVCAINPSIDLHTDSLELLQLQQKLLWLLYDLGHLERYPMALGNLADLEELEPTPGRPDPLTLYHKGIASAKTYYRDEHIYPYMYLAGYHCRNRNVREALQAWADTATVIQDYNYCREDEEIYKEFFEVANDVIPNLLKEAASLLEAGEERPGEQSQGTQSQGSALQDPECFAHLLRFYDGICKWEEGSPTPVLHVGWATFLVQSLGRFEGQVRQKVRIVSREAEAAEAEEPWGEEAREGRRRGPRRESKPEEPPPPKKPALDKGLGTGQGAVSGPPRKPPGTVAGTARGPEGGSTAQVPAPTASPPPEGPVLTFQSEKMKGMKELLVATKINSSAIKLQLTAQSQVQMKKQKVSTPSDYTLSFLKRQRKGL
Assay: Menin-MLL Interaction Inhibitory Activity Assay
Method: The inhibition of Menin/MLL-4-43 peptide interaction by small molecule inhibitors was quantitatively detected by fluorescence polarization competition assay. The experiment was performed in a 384-well plate (Corning, Cat #3575) using a reaction buffer consisting of 50 mM Tris, pH 7.5, 50 mM NaCl, and 1 mM DTT. A 40 μL reaction system included 10 μL of 8 nM Menin recombinant protein and 10 μL of the test compound at different concentrations. The compound was pre-incubated with Menin protein for 15 min, and then 20 μL of 10 nM FITC-MLL4-43-peptide was added. After incubation on a shaker at 25° C. for 60 min, the fluorescence polarization signal (FP 485 520 520) was read using BMG PHERAStar detection. The experimental data was analyzed and processed by GraphPad Prism 6 software to obtain the IC50 value.

pIC50 | Compound
7.44 | CCN(C(=O)c1cc(F)ccc1Oc1cncnc1N1CC2(CCN(C[C@H]3CC[C@@]4(CCC(=O)N4)CC3)CC2)C1)C(C)C [US20250074910, Example 1]
8.08 | CC(C)N(C(=O)c1cc(F)ccc1Oc1nncnc1N1CC2(CCN(C[C@H]3CC[C@]4(CC3)CC(CO)(CO)C(=O)N4)CC2)C1)C(C)C [US20250074910, Example 63]
